From patent US9090600B2, “Fungicidal 4-substituted-3-{phenyl[(heterocyclylmethoxy)imino]methyl}-1,2,4-oxadizol-5(4H)-one derivatives” (BAYER INTELLECTUAL PROPERTY GMBH, priority 2011, dated 2015) come the findings set out here.

One data set concerns Plasmopara viticola. Put plainly: Plasmopara test (grapevines)/preventive. Type of data set: in vivo. As to conditions: preventive spray, 10 ppm of active ingredient, evaluated 6 days after inoculation. How it is done:
Solvent: 24.5 parts by weight of acetone • 24.5 parts by weight of dimethylacetamide
Emulsifier: 1 part by weight of alkylaryl polyglycol ether
To produce a suitable preparation of active compound, 1 part by weight of active compound is mixed with the stated amounts of solvent and emulsifier, and the concentrate is diluted with water to the desired concentration.
To test for preventive activity, young plants are sprayed with the preparation of active compound at the stated rate of application. After the spray coating has dried on, the plants are inoculated with an aqueous spore suspension of Plasmopara viticola and then remain for 1 day in an incubation cabinet at approximately 20° C. and a relative atmospheric humidity of 100%. The plant is subsequently placed for 4 days in a greenhouse at approximately 21° C. and a relative atmospheric humidity of approximately 90%. The plants are then misted and placed for 1 day in an incubation cabinet.
The test is evaluated 6 days after the inoculation. 0% means an efficacy which corresponds to that of the untreated control, while an efficacy of 100% means that no disease is observed.

Another data set deals with Phytophthora infestans. Format: in vivo. As to conditions: tomato, preventive spray, 100 ppm of active ingredient, evaluated 7 days after inoculation.
For data set [1] the following is noted: pH 2.7.

Molecules are shown by their SMILES. Marks after values point to notes of the source that are not given here.

`Cn1c(/C(=N\OCc2cccc(NC(=O)OCCC3CCCCC3)n2)c2ccccc2)noc1=O` [Example 5]: the Eff. % is 88% in the data set with Plasmopara viticola and 95% in the data set on Phytophthora infestans. Besides, in data set [1], the LogP was 5.27 [a].
The matching figures for `Cn1c(/C(=N\OCc2cccc(NC(=O)OCCc3ccccc3)n2)c2ccccc2)noc1=O` [Example 7]: 96%, 95% and 4.15 [a].
The matching figures for `CCCCCCC(=O)Nc1nc(CO/N=C(/c2ccccc2)c2noc(=O)n2C)cs1` [Example 9]: 94%, 95% and 4.13 [a].
For `Cn1c(/C(=N\OCc2csc(NC(=O)C3COc4ccccc4O3)n2)c2ccccc2)noc1=O` (centres unmarked) [Example 10], in that order: 96%, 95% and 3.62 [a].
Regarding `Cn1c(/C(=N\OCc2csc(NC(=O)C3CCc4ccccc4O3)n2)c2ccccc2)noc1=O` (centres unmarked) [Example 11], the results for the Eff. % in the data set with Plasmopara viticola and with Phytophthora infestans were 98% and 100%, respectively. Besides, in data set [1], the LogP is 3.94 [a].
Regarding `CCCCCOC(=O)Nc1nc(CO/N=C(/c2ccccc2)c2noc(=O)n2C)cs1` [Example 12], the values for the Eff. % in the data set with Plasmopara viticola and in the data set on Phytophthora infestans were 94% and 95%, respectively. For the same molecule, the LogP in data set [1] is 4.11 [a].
Turning to `CCCCC(=O)Nc1nc(CO/N=C(/c2ccccc2)c2noc(=O)n2C)cs1` [Example 13], the figures for the Eff. % in the data set with Plasmopara viticola and with Phytophthora infestans were 93% and 95%, respectively. Besides, the LogP in data set [1] is 3.37 [a].
The matching figures for `Cn1c(/C(=N\OCc2cccc(NC(=O)OCC3CCCC3)n2)c2ccccc2)noc1=O` [Example 16]: 94%, 98% and 4.53 [a].
Turning to `Cn1c(/C(=N\OCc2cccc(NC(=O)c3cccc(F)c3)n2)c2ccccc2)noc1=O` [Example 17], the results for the Eff. % with Plasmopara viticola and in the data set on Phytophthora infestans were 94% and 98%, respectively. Further, the LogP in data set [1] is 3.69 [a].
Turning to `Cn1c(/C(=N\OCc2csc(NC(=O)c3cccc(F)c3)n2)c2ccccc2)noc1=O` [Example 20], the Eff. % in the data set on Plasmopara viticola is on record as 94%; in the data set on Phytophthora infestans, 95%. In addition, in data set [1], the LogP is 3.6 [a].
In the data set on Phytophthora infestans, `C#CCCOC(=O)Nc1cccc(CO/N=C(/c2ccccc2)c2noc(=O)n2CC#N)n1` [Example 70] returned an Eff. % of 84%. Further, the LogP in data set [1] was 3.31 [a].
As for `Cn1c(/C(=N\OCc2cccc(NCCc3ccccc3)n2)c2ccccc2)noc1=O` [Example 74], the Eff. % is 94% in the data set on Plasmopara viticola and 95% in the data set with Phytophthora infestans. Moreover, the LogP in data set [1] was 2.78 [a].
Molecule `C#CCCOC(=O)Nc1cccc(CO/N=C(/c2ccccc2)c2noc(=O)n2CC#C)n1` [Example 86] yielded an Eff. % in the data set with Phytophthora infestans of 90%. For the same molecule, the LogP in data set [1] was 3.46 [a].
Consider `C#CCCOC(=O)Nc1cccc(CO/N=C(/c2ccccc2)c2noc(=O)n2CC)n1` [Example 104], for which the Eff. % with Plasmopara viticola is reported as 100%; with Phytophthora infestans, 93%. Further, the LogP in data set [1] is 3.51 [a].
In the case of `Cn1c(/C(=N\OCc2cccc(NC/C=N/OCc3ccccc3)n2)c2ccccc2)noc1=O` [Example 136], the values for the Eff. % in the data set on Plasmopara viticola and in the data set with Phytophthora infestans were 75% and 95%, respectively. For the same molecule, in data set [1], the LogP is 3.35 [a].
As for `Cn1c(/C(=N\OCc2csc(NC(=O)C(C)(C)C)n2)c2ccccc2)noc1=O` [Example 154], the Eff. % in the data set on Phytophthora infestans came to 95%. Also, the LogP in data set [1] is 3.42 [a].
On to `CCCCCCNc1cccc(CO/N=C(/c2ccccc2)c2noc(=O)n2C)n1` [Example 163], for which the results for the Eff. % with Plasmopara viticola and in the data set with Phytophthora infestans were 96% and 95%, respectively. For the same molecule, in data set [1], the LogP is 2.64 [a].
`CCC(Oc1ccccc1)C(=O)Nc1nc(CO/N=C(/c2ccccc2)c2noc(=O)n2C)cs1` (centres unmarked) [Example 322] showed an Eff. % in the data set on Phytophthora infestans of 75%. Moreover, the LogP in data set [1] is 3.99 [a].

One may read the LogP as the decadic logarithm of the partition coefficient of the neutral form, usually between octanol and water. A higher LogP goes with a more lipophilic compound.
